The values below come from patent publication US20060264460A1 (Wyeth, priority 2005, published 2006).

T1 sequence (P41279 30-398): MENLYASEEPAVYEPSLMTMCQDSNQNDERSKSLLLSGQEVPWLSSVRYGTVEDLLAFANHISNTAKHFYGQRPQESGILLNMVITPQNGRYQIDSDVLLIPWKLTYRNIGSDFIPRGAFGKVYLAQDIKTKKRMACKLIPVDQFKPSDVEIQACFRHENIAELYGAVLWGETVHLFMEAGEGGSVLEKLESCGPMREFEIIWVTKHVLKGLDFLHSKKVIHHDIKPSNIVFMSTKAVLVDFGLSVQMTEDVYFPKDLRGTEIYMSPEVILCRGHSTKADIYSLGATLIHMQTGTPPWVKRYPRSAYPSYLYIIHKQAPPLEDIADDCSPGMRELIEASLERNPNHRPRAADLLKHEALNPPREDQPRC

The assay concerns the target T1, human Cot/Tpl2 kinase (Homo sapiens, UniProt P41279).
T1 construct: human Cot/Tpl2 kinase construct encoding residues 30-398; 6His (N); made in house; host or cells: Sf9 insect cells, baculovirus system (BD Biosciences)
The assay can be described thus: Tpl2/Cot kinase assay: GST-MEK1 phosphorylation detected by ELISA (DELFIA Eu). The conditions noted are these: Tpl2/Cot kinase, GST-MEK1 substrate, 50 uM ATP, 1 h at 30° C.; Table 2. Format: biochemical. The gist of the method:
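His-tagged human Tpl2 from Sf9 cells, Ni-affinity and size-exclusion purified (monomer). 0.4 nM Tpl2 with 35 nM GST-MEK1, 50 uM ATP, MOPS pH 7.2, 1% DMSO, 1 h at 30° C; EDTA stop. MEK1 Ser217/221 phosphorylation detected by anti-phospho-MEK1 and Eu-labelled secondary ELISA; IC50 fitted.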
A general note: An ELISA detects its analyte on a solid surface through an enzyme-linked reagent.
`N#Cc1cnc2ccc(NCc3cn(CCN4CCCCCC4)nn3)cc2c1NC1CCCCC1` [Example 970] gave an IC50 of 510 nM.

`CN1CCCC1CCn1cc(CNc2cc(Cl)c3ncc(C#N)c(NC4CCC5(CCCCC5)CC4)c3c2)nn1` (centres unmarked) [Example 971] gave an IC50 above 3000 nM.

As for `CN1CCCC1CCn1cc(CNc2cc(Cl)c3ncc(C#N)c(NC4CCCC5(CCCC5)C4)c3c2)nn1` (centres unmarked) [Example 972], the half-maximal inhibitory concentration (IC50) was above 3000 nM.

`CC(C)(C)OC(=O)N1CCC(n2cc(CNc3cc(Cl)c4ncc(C#N)c(NC5CCC6(CCCCC6)CC5)c4c3)nn2)CC1` [Example 973] showed a 50% inhibitory concentration (IC50) above 3000 nM.

`CC(C)(C)OC(=O)N1CCC(n2cc(CNc3cc(Cl)c4ncc(C#N)c(NC5CCCC6(CCCC6)C5)c4c3)nn2)CC1` (centres unmarked) [Example 974] registered an IC50 above 3000 nM.

On to `N#Cc1cnc2c(Cl)cc(NCc3cn(CCN4CCCCCC4)nn3)cc2c1NC1CCC2(CCCCC2)CC1` [Example 975], for which the IC50 was above 3000 nM.

Molecule `N#Cc1cnc2c(Cl)cc(NCc3cn(CCN4CCCCCC4)nn3)cc2c1NC1CCCC2(CCCC2)C1` (centres unmarked) [Example 976] gave an IC50 above 3000 nM.

For the molecule `N#Cc1cnc2ccc(NCc3cn(C4CCNCC4)nn3)cc2c1NC1CCCCC1` [Example 977], the IC50 came out at 130 nM. This lies in the sub-micromolar range.

`N#Cc1cnc2c(Cl)cc(NCc3cn(C4CCNCC4)nn3)cc2c1NC1CCC2(CCCCC2)CC1` [Example 978] showed an IC50 above 3000 nM.

The molecule `N#Cc1cnc2c(Cl)cc(NCc3cn(C4CCNCC4)nn3)cc2c1NC1CCCC2(CCCC2)C1` (centres unmarked) [Example 979] showed a 50% inhibitory concentration (IC50) of 970 nM.

`COC(=O)N1CCC(n2cc(CNc3cc(Cl)c4ncc(C#N)c(Nc5ccc(F)c(Cl)c5)c4c3)nn2)CC1` [Example 980] displayed an IC50 of 24 nM.

`COC(=O)N1CCC(n2cc(CN(C(=O)OC)c3cc(Cl)c4ncc(C#N)c(Nc5ccc(F)c(Cl)c5)c4c3)nn2)CC1` [Example 981] had an IC50 of 610 nM.

Molecule `N#Cc1cnc2c(Cl)cc(NCc3cn(C4CCN(C(=O)OCCF)CC4)nn3)cc2c1Nc1ccc(F)c(Cl)c1` [Example 982] had an IC50 of 31 nM. This IC50 lies about 20-fold lower than the previous one.

`N#Cc1cnc2c(Cl)cc(N(Cc3cn(C4CCN(C(=O)OCCF)CC4)nn3)C(=O)OCCF)cc2c1Nc1ccc(F)c(Cl)c1` [Example 983] returned a 50% inhibitory concentration (IC50) above 3000 nM.

`CN(C)CCn1cc(CNc2cc(Cl)c3ncc(C#N)c(NCC(F)(F)F)c3c2)nn1` [Example 984] displayed an IC50 of 1090 nM.

On to `N#Cc1cnc2c(Cl)cc(NCc3cn(CCN4CCCCC4)nn3)cc2c1NCC(F)(F)F` [Example 985], for which the IC50 is 1410 nM.

In the case of `N#Cc1cnc2c(Cl)cc(NCc3cn(C4CCNCC4)nn3)cc2c1NC1CCC1` [Example 986], half-maximal inhibition (IC50) required 350 nM.

As for `N#Cc1cnc2c(Cl)cc(NCc3cn(C4CCNCC4)nn3)cc2c1NC1CCOCC1` [Example 987], half-maximal inhibition (IC50) was put at 1100 nM.

Molecule `N#Cc1cnc2c(Cl)cc(NCc3cn(CCN4CCCCCC4)nn3)cc2c1Nc1ccc(Oc2ccccc2)cc1` [Example 988] returned an IC50 above 3000 nM.

Regarding `CC(C)(C)OC(=O)N1CCC(n2cc(CNc3cc(Cl)c4ncc(C#N)c(Nc5ccc(Oc6ccccc6)cc5)c4c3)nn2)CC1` [Example 989], the concentration for half-maximal inhibition (IC50) was determined as 400 nM.

In turn, `CN1CCCC1CCn1cc(CNc2cc(Cl)c3ncc(C#N)c(Nc4ccc(Oc5ccccc5)cc4)c3c2)nn1` (centres unmarked) [Example 990] had an IC50 of 830 nM. Compared with the last molecule, the IC50 is about 2.1-fold higher.

As to `N#Cc1cnc2c(Cl)cc(NCc3cn(C4CCN(C[C@@H](O)[C@H](O)CO)CC4)nn3)cc2c1Nc1ccc(F)c(Cl)c1` [Example 991], the half-inhibitory concentration (IC50) is 8.2 nM.

`N#Cc1cnc2c(Cl)cc(NCc3cn(C4CCN(CCO)CC4)nn3)cc2c1Nc1ccc(F)c(Cl)c1` [Example 992]: half-maximal inhibition (IC50) required 2 nM.

Regarding `N#Cc1cnc2c(Cl)cc(NCc3cn(CC(O)c4ccccn4)nn3)cc2c1Nc1ccc(F)c(Cl)c1` (centres unmarked) [Example 993], half-maximal inhibition (IC50) required 48 nM.

In turn, `N#Cc1cnc2c(Cl)cc(NCc3cn(C4CCN(CC(O)CO)CC4)nn3)cc2c1Nc1ccc(F)c(Cl)c1` (centres unmarked) [Example 994] displayed a 50% inhibitory concentration (IC50) of 6.8 nM.

With `CC#CCn1cc(CNc2cc(Cl)c3ncc(C#N)c(Nc4ccc(F)c(Cl)c4)c3c2)nn1` [Example 995], half-maximal inhibition (IC50) required 240 nM. This IC50 lies about 35-fold higher than the previous one.

On to `Cc1cc(CNc2cc(Cl)c3ncc(C#N)c(Nc4ccc(F)c(Cl)c4)c3c2)no1` [Example 996], for which the IC50 was above 3000 nM.

As to `N#Cc1cnc2c(Cl)cc(NCc3cn(C4CC5CCC(C4)N5)nn3)cc2c1Nc1ccc(F)c(Cl)c1` (centres unmarked) [Example 997], the IC50 was 11 nM.

Take `N#CCN1CCC(n2cc(CNc3cc(Cl)c4ncc(C#N)c(Nc5ccc(F)c(Cl)c5)c4c3)nn2)CC1` [Example 998]: the midpoint of inhibition, the IC50, lay at 22 nM.

In turn, `CC(C)N1CCC(n2cc(CNc3cc(Cl)c4ncc(C#N)c(NC5CCC5)c4c3)nn2)CC1` [Example 999] had an IC50 of 130 nM.

`CC(C)N1CCC(n2cc(CNc3cc(Cl)c4ncc(C#N)c(NC5CCOCC5)c4c3)nn2)CC1` [Example 1000] came in with a half-maximal inhibitory concentration (IC50) of 480 nM.

Molecule `N#Cc1cnc2c(Cl)cc(NCc3cn(CC(O)c4ccncc4)nn3)cc2c1Nc1ccc(F)c(Cl)c1` (centres unmarked) [Example 1001] gave an IC50 of 19 nM.

On to `N#Cc1cnc2c(Cl)cc(NCc3cccs3)cc2c1Nc1ccc(F)c(Cl)c1` [Example 1002], for which the IC50 was above 3000 nM.

Molecule `N#Cc1cnc2c(Cl)cc(NCc3cn(C4CCN(C5CC5)CC4)nn3)cc2c1Nc1ccc(F)c(Cl)c1` [Example 1003] displayed a half-inhibitory concentration (IC50) of 17 nM.

Turning to `N#Cc1cnc2c(Cl)cc(NCc3cc(Br)cs3)cc2c1Nc1ccc(F)c(Cl)c1` [Example 1004], the IC50 is above 3000 nM.

Take `CCN1C2CCC1CC(n1cc(CNc3cc(Cl)c4ncc(C#N)c(Nc5ccc(F)c(Cl)c5)c4c3)nn1)C2` (centres unmarked) [Example 1005]: the IC50 was 41 nM. In other words, the double-digit nanomolar range.

In the case of `CC(C)(C)OC(=O)N1CCCC(n2cc(CNc3cc(Cl)c4ncc(C#N)c(Nc5ccc(F)c(Cl)c5)c4c3)nn2)CC1` (centres unmarked) [Example 1006], the concentration for half-maximal inhibition (IC50) was 240 nM.

`N#Cc1cnc2c(Cl)cc(NCc3cn(C4CCCNCC4)nn3)cc2c1Nc1ccc(F)c(Cl)c1` (centres unmarked) [Example 1007] returned a 50% inhibitory concentration (IC50) of 16 nM.

Molecule `N#Cc1cnc2c(Cl)cc(NCc3cn(C4CCN(c5ncccc5C(F)(F)F)CC4)nn3)cc2c1Nc1ccc(F)c(Cl)c1` [Example 1008] registered an IC50 of 490 nM.

Molecule `N#Cc1cnc2c(Cl)cc(NCc3cn(C4CCCN(CC(F)(F)F)CC4)nn3)cc2c1Nc1ccc(F)c(Cl)c1` (centres unmarked) [Example 1009] yielded a half-maximal inhibitory concentration (IC50) of 270 nM. This IC50 is about 1.8-fold lower than that of the molecule before.

Molecule `N#Cc1cnc2c(Cl)cc(NCc3cn(C4CCCN(CC(F)F)CC4)nn3)cc2c1Nc1ccc(F)c(Cl)c1` (centres unmarked) [Example 1010] displayed an IC50 of 310 nM.

`N#Cc1cnc2c(Cl)cc(NCc3cn(C4CCCN(CCF)CC4)nn3)cc2c1Nc1ccc(F)c(Cl)c1` (centres unmarked) [Example 1011] showed an IC50 of 9.1 nM.

Molecule `N#Cc1cnc2c(Cl)cc(NCc3cn(C4CCCN(CC(F)(F)C(F)(F)F)CC4)nn3)cc2c1Nc1ccc(F)c(Cl)c1` (centres unmarked) [Example 1012] returned a concentration for half-maximal inhibition (IC50) above 3000 nM.

`N#Cc1cnc2c(Cl)cc(NCc3cn(C4CCCN(CC(F)(F)C(F)F)CC4)nn3)cc2c1Nc1ccc(F)c(Cl)c1` (centres unmarked) [Example 1013] showed a concentration for half-maximal inhibition (IC50) of 430 nM.

As to `N#Cc1cnc2c(Cl)cc(NCc3cn(C4CCN(CC(F)(F)F)CC4)nn3)cc2c1Nc1ccc(F)c(Cl)c1` [Example 1014], the midpoint of inhibition, the IC50, lay at 280 nM.

Regarding `N#Cc1cnc2c(Cl)cc(NCc3cn(C4CCN(CC(F)F)CC4)nn3)cc2c1Nc1ccc(F)c(Cl)c1` [Example 1015], the IC50 is 92 nM.

For the molecule `N#Cc1cnc2c(Cl)cc(NCc3cn(C4CCN(CCF)CC4)nn3)cc2c1Nc1ccc(F)c(Cl)c1` [Example 1016], the midpoint of inhibition, the IC50, lay at 15 nM.

In the case of `N#Cc1cnc2c(Cl)cc(NCc3cn(C4CCN(CC(F)(F)C(F)(F)F)CC4)nn3)cc2c1Nc1ccc(F)c(Cl)c1` [Example 1017], 1040 nM corresponded to half-maximal inhibition (IC50). This IC50 is about 69-fold higher than that of the molecule before.

For `N#Cc1cnc2c(Cl)cc(NCc3cn(C4CCN(CC(F)(F)C(F)F)CC4)nn3)cc2c1Nc1ccc(F)c(Cl)c1` [Example 1018], half-maximal inhibition (IC50) required 400 nM. Compared with the last molecule, the IC50 is about 2.6-fold lower.

As for `N#Cc1cnc2c(Cl)cc(NCc3cncc(C(O)(C(F)(F)F)C(F)(F)F)c3)cc2c1Nc1ccc(F)c(Cl)c1` [Example 1019], the IC50 is above 3000 nM.

In the case of `N#Cc1cnc2c(Cl)cc(NCc3cn(CCc4cccnc4)nn3)cc2c1Nc1ccc(F)c(Cl)c1` [Example 1020], half-maximal inhibition (IC50) required 130 nM.

Take `N#CCn1cc(CNc2cc(Cl)c3ncc(C#N)c(Nc4ccc(F)c(Cl)c4)c3c2)nn1` [Example 1021]: the midpoint of inhibition, the IC50, lay at 430 nM.

As to `CN(C)CCCc1csc(CNc2cc(Cl)c3ncc(C#N)c(Nc4ccc(F)c(Cl)c4)c3c2)c1` [Example 1022], the IC50 worked out at 980 nM.

In turn, `CN(C)CC#Cc1csc(CNc2cc(Cl)c3ncc(C#N)c(Nc4ccc(F)c(Cl)c4)c3c2)c1` [Example 1023] came in with a half-inhibitory concentration (IC50) of 1160 nM.

`N#Cc1cnc2c(Cl)cc(NCc3cc(Br)co3)cc2c1Nc1ccc(F)c(Cl)c1` [Example 1024] returned an IC50 above 3000 nM.

Turning to `N#Cc1cnc2c(Cl)cc(NCc3cn(Cc4cncc(C(O)(C(F)(F)F)C(F)(F)F)c4)nn3)cc2c1Nc1ccc(F)c(Cl)c1` [Example 1025], the IC50 is 910 nM.

Regarding `Cn1cc(CNc2cc(Cl)c3ncc(C#N)c(Nc4ccc(F)c(Cl)c4)c3c2)cn1` [Example 1026], the IC50 came to 290 nM.

On to `N#Cc1cnc2c(Cl)cc(NCc3cn(C4CCN(CC5CC5)CC4)nn3)cc2c1Nc1ccc(F)c(Cl)c1` [Example 1027], for which it took 7.9 nM to reach half-maximal inhibition (IC50).

Molecule `N#Cc1cnc2c(Cl)cc(N(Cc3cn(C4CCN(CC5CC5)CC4)nn3)CC3CC3)cc2c1Nc1ccc(F)c(Cl)c1` [Example 1028] came in with an IC50 of 410 nM.

In turn, `N#Cc1cnc2c(Cl)cc(N(Cc3cn(C4CCN(C5CCC5)CC4)nn3)C3CCC3)cc2c1Nc1ccc(F)c(Cl)c1` [Example 1029] came in with an IC50 of 290 nM.

For `N#Cc1cnc2c(Cl)cc(NCc3cn(C4CCCN(C5CCC5)CC4)nn3)cc2c1Nc1ccc(F)c(Cl)c1` (centres unmarked) [Example 1030], the IC50 came to 12 nM.

`CC(C)(C)OC(=O)N1CCC(O)(c2cncc(CNc3cc(Cl)c4ncc(C#N)c(Nc5ccc(F)c(Cl)c5)c4c3)c2)CC1` [Example 1031] returned an IC50 of 160 nM.

One may read the IC50 as the concentration at which inhibition is half-maximal. A low value points to greater potency in that assay.
